In one assay the target is T1, Homo sapiens GSK-3β (Homo sapiens, UniProt P49841).
T1 construct: purchased MRC Protein Phosphorylation & Ubiquitylation Unit, University of Dundee (screening service)
T1 sequence (P49841 whole entry): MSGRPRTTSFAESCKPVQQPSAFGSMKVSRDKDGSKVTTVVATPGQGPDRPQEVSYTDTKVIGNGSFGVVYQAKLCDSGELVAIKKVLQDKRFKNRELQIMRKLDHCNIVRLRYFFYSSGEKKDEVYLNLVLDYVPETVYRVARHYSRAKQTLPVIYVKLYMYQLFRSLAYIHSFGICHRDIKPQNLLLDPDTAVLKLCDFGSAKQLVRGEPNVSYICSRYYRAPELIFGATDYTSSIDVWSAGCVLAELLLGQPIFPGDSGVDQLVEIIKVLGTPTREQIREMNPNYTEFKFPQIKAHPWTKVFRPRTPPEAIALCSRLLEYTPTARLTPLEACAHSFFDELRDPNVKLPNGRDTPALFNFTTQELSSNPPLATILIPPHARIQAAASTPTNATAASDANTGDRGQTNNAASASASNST
The assay can be described thus: in vitro GSK-3β binding assay (kinase inhibition, MRC PPU Dundee). The format is biochemical. To be noted: in vitro binding assay, duplicate. Here is the method:
All predicted inhibitors for testing (except compound 3) were purchased from Vitas-M Laboratory, with purity ≥ 90%. Compound 3 was purchased from Biosynth Carbosynth with purity of 95%. Binding assay experiments against Homo sapiens GSK-3β were performed using a specialist service from the MRC Protein Phosphorylation & Ubiquitylation Unit at the University of Dundee (http://www.kinase-screen.mrc.ac.uk/ (accessed on 1 April 2023)). Initial assays underwent single concentration screening at 50 µM concentrations to determine those compounds showing the best inhibitory potential. Inhibitory activities were calculated based on maximal activities measured in the absence of an inhibitor. […] In the kinase selectivity panel screening for 14 and 19, the compounds were assayed at single concentration (50 μM) against CDK2, CDK5, CDK9, ERK1, ERK2, PKA, PKBβ, PKCα, PKCγ, GSK-3α, and GSK-3β. All binding assay experiments were performed in duplicate.
As usually defined, the IC50 is the concentration that inhibits the measured activity by half. Compound `Nc1ccc2ncnc3c2c1C(=O)c1ccccc1-3` [Compound 1, 6-amino-7H-benzo[e]perimidin-7-one] had an IC50 of 1630 ± 300 nM.
Same read-out and setting: next, `O=C1c2ccccc2-c2c(Nc3ccccc3)c(O)nc3cccc1c23` [Compound 2, 1-(phenylamino)-3H-naphtho[1,2,3-de]quinoline-2,7-dione]: 20600 ± 3800 nM; `COc1cccc2c1cc1c3c(cc4c(c32)OCO4)C(=O)N1` [Compound 3, 8-methoxy-[1,3]dioxolo[4′,5′:4,5]benzo[1,2,3-cd]benzo[f]indol-5(6H)-one]: 63700 ± 3300 nM.
With `COc1ccc([C@@H]2CC(=O)Nc3cccc4c3c2cn4Cc2ccccc2)c(OC)c1` [Compound 4, (R)-1-benzyl-3-(2,4-dimethoxyphenyl)-1,3,4,6-tetrahydro-5H-azepino[4,3,2-cd]indol-5-one], the IC50 came to 87500 ± 9170 nM.

Still in this assay, the particulars now being: single concentration 50 µM.
The term inhibition denotes the drop in the measured response relative to a control, in per cent. A low value points to little suppression. Compound `O=C1Nc2ccccc2C(=O)N2c3ccccc3C[C@@H]12` [Compound 5, (S)-12a,13-dihydro-6H-benzo[5,6][1,4]diazepino[1,2-a]indole-6,12(11H)-dione] yielded an inhibition at 50 µM of 20%.
The same measure, in the same setting: the figure for `CN(C)CCn1cnc2c1c(=O)[nH]c(=O)n2Cc1ccccc1` [Compound 6, 3-benzyl-7-(2-(dimethylamino)ethyl)-3,7-dihydro-1H-purine-2,6-dione] is 11%; for `Cc1coc2cc3oc(=O)c(CC(=O)N[C@H]4CCCc5c4[nH]c4ccccc54)c(C)c3cc12` [Compound 7, (S)-2-(3,5-dimethyl-7-oxo-7H-furo[3,2-g]chromen-6-yl)-N-(2,3,4,9-tetrahydro-1H-carbazol-1-yl)acetamide] it is 10%.
The compound `O=C1N/C(=C/c2ccccc2)C(=O)N2Cc3ccccc3C[C@@H]12` [Compound 8, (S,E)-3-benzylidene-2,3,11,11a-tetrahydro-4H-pyrazino[1,2-b]isoquinoline-1,4(6H)-dione] returned an inhibition at 50 µM of 10%.
Same read-out and setting: next, `COc1ccc(Cn2cnc3c([nH]c4ccccc43)c2=O)cc1OC` [Compound 9, 3-(3,4-dimethoxybenzyl)-3,5-dihydro-4H-pyrimido[5,4-b]indol-4-one]: 9%.

For another assay, the system named is GSK-3β.
Experiment: not given
Also noted: method as in ChEMBL database [53]. The conditions noted are these: Table S1, ChEMBL data; ref ChEMBL database [53]; read-out: IC50 (GSK-3β, known actives); cited from earlier work.
On to `COc1ccc(-c2cc3c(NC(=O)CC4CCCC4)ncnc3o2)cc1` [CHEMBL182891], for which the IC50 was 320 nM.
As to `C[C@@H]1C[C@H]2CN1CCn1nc3c(cccc3c1O)-c1nc3c(cccc3nc1O)O2` [CHEMBL215803], the IC50 was 13 nM.
For the compound `COc1cccc(-n2ncc3c(N/N=C/c4ccc(OCCN(C)C)cc4)ncnc32)c1` [CHEMBL303321], the IC50 was 6.31 nM.
Take `O=C(CCl)c1scc(Br)c1Br` [CHEMBL357136]: the IC50 was 500 nM.
Turning to `COc1ccc(-c2oc3ncnc(N)c3c2-c2cccnc2)cc1` [CHEMBL361567], the IC50 was 80 nM.
Take `FC(F)(F)c1cccc(-c2nn3ncccc3c2-c2ccnc(Nc3ccc4c(c3)OCCO4)n2)c1` [CHEMBL362155]: the IC50 is […].
On to `Clc1ccccc1-c1cc(NCOc2cccnc2)n2ncc(Br)c2n1` [CHEMBL398621], for which the IC50 is 35 nM.
As to `COc1cccc(Nc2nccc(C3=C(c4ccccc4)NN4C=CC=CC34)n2)c1` (stereo not drawn) [CHEMBL403405], the IC50 is 30 nM.
As for `O=C(NC1CCNCC1)c1n[nH]cc1NC(=O)c1c(Cl)cccc1Cl` [CHEMBL445813], the IC50 is 200 nM.
Turning to `O=c1[nH]cnc2[nH]c(-c3ccnc(/C=C/c4ccc(CN5CCOCC5)cc4)c3)cc12` [CHEMBL461139], the IC50 is 300 nM.
`COc1cc(NCCCN)c2nccc(C)c2c1Oc1cccc(C(F)(F)F)c1` [CHEMBL495039]: the IC50 is […].
With `COc1ccc(-n2cnc3ccc(-c4nnc(SCc5cccc(C(F)(F)F)c5)o4)cc32)cc1` [CHEMBL513570], the IC50 was 2.5 nM.
As to `COc1cc(C2=C(c3cn(CCN4CCN(C)CC4)c4ccccc34)C(=O)NC2=O)c2occc2c1` [CHEMBL564450], the IC50 was 0.14 nM.
As for `Cc1[nH]c2ccccc2c1C1=C(NCCc2ccc(F)cc2)C(=O)N(C)C1=O` [CHEMBL1254896], the IC50 is 53 nM.
Turning to `Oc1ccc(Nc2ncnc3[nH]cnc23)cc1CN(CCCl)CCCl` [CHEMBL1630434], the IC50 is 10.8 nM.
For `COc1ccc(-c2cc(-c3ccc(F)cc3)[nH]c(=O)c2O)cc1` [CHEMBL1630451], the IC50 is 325 nM.
As to `COc1ccc(Nc2nnc(-c3ccc(C(F)(F)F)cc3)o2)cc1` [CHEMBL1630483], the IC50 was 53 nM.
`Nc1c(Br)cc(C(=O)C(Br)Br)cc1Br` [CHEMBL1801628]: the IC50 is 500 nM.
`O=C1Nc2ccccc2/C1=C1/Nc2cc(Br)ccc2C1=O` [CHEMBL1830063]: the IC50 was 4 nM.
As to `Cc1ccccc1-n1cc(-c2ccccn2)nn1` [CHEMBL1938959], the IC50 is 490 nM.
With `COc1ccc(-c2ocnc2C(=O)NCc2ccn3ccnc3c2)cc1Cl` [CHEMBL1957231], the IC50 is 5.01 nM.
Turning to `N#Cc1ccc2[nH]c(O)c(-c3ccc(CN4CCOCC4)cn3)c2c1` [CHEMBL1969664], the IC50 was 31 nM.
Regarding `OCC/N=c1\nc(-c2ccccc2)n(-c2cccc3ccccc23)s1` [CHEMBL2022413], the IC50 was 300 nM.
With `CCOC(=O)C/N=c1\nc(-c2ccc(OC)cc2)n(-c2ccccc2)s1` [CHEMBL2024372], the IC50 is 500 nM.
As for `O=C(NCCc1cccnc1Cl)c1ccnc2[nH]c(-c3ccoc3)nc12` [CHEMBL2048673], the IC50 was 9 nM.
With `O=C1Nc2ccccc2/C1=C/c1ccccn1` [CHEMBL2094331], the IC50 is 4.19 nM.
Regarding `Cc1ccc(-c2c[nH]c(C3COCCN3Cc3c[nH]c4ccccc34)n2)cc1` (stereo not drawn) [CHEMBL2297166], the IC50 is 120 nM.
`Fc1cnc2[nH]nc(Nc3cc(C(F)(F)F)cc(-c4ccccc4Cl)n3)c2c1` [CHEMBL3661029]: the IC50 was 50 nM.
In the case of `COc1ccncc1-c1ccc2[nH]nc(C(=O)NCC3CCN(CCc4ccccc4)CC3)c2c1` [CHEMBL3735603], the IC50 is 20 nM.
For `COc1ccc2c(c1C(C)N1CCNCC1)O/C(=C\c1n[nH]c3ncccc13)C2=O` (stereo not drawn) [CHEMBL3735890], the IC50 is 6.1 nM.
In the case of `O=C(/C=C/c1cnc2[nH]cc(-c3ccccc3)c2c1)NCCN1CCOCC1` [CHEMBL3891139], the IC50 is 46 nM.
On to `COc1cc(F)cc(F)c1C1CN(c2nc(-c3ccncn3)cc(=O)n2C)CCN1` (stereo not drawn) [CHEMBL4071429], for which the IC50 is 1.7 nM.
As to `O=C1Cc2cc(Br)ccc2/C1=c1/[nH]c2ccccc2/c1=C\O` [CHEMBL4077172], the IC50 was 5 nM.
`O=CN1Cc2cccc3c(C4=C(c5cnc6ccccn56)C(=O)NC4=O)cn(c23)CC1N1CCOCC1` (stereo not drawn) [CHEMBL4162850]: the IC50 was 1.3 nM.
Consider `C=CCOC(=O)c1cc(-c2ccc(/C=C3/NC(=S)NC3=O)o2)ccc1Cl` [CHEMBL4568120], for which the IC50 was 218 nM.
In the case of `Cc1ccc(-n2cc(CSC3=NC(c4ccccc4)CC(=O)N3C)nn2)cc1C` (stereo not drawn) [CHEMBL4635819], the IC50 is 82 nM.
On to `CCc1ccc(-n2cc(CSc3nnc(Cn4c(C(F)(F)F)nc5ccccc54)o3)nn2)cc1` [CHEMBL4643895], for which the IC50 is 390 nM.

Still in this assay, the particulars now being: read-out: IC50 (GSK-3β, known actives); cited from earlier work.
As for `CN(C)C[C@@H](OC(=O)N1Cc2c(NC(=O)C(C)(C)C)n[nH]c2C1(C)C)c1ccccc1` [CHEMBL2064628], the IC50 was 227 nM.
`Cc1nn(-c2ccc(Cl)cc2Cl)c2c1c1c(c3cccn32)C(=O)NC1=O` [CHEMBL3110144]: the IC50 is 240 nM.

The record behind these values is paper PMC10223992, “In Silico-Motivated Discovery of Novel Potent Glycogen Synthase-3 Inhibitors: 1-(Alkyl/arylamino)-3H-naphtho[1,2,3-de]quinoline-2,7-dione Identified as a Scaffold for Kinase Inhibitor Development” (Pharmaceuticals, 2023).
